This is an account of results in patent publication US9718834B2, “Processes and intermediates for making a JAK inhibitor” (Incyte Corporation, priority 2011, dated 2017).

Bounds are passed on as bounds.

In this experiment the target is T1, human JAK1 (a.a. 837-1142) (Homo sapiens, UniProt P23458).
T1 construct: human JAK1 (a.a. 837-1142); His tag (N); made in house; host or cells: insect cells (baculovirus)
Description: In vitro JAK kinase assay (HTRF, phosphorylation of biotinylated peptide), JAK1. Format: biochemical. Particulars: measured at 1 mM ATP. The method, then:
The compound of Formula I herein was tested for inhibitory activity of JAK targets according to the following in vitro assay described in Park et al., Analytical Biochemistry 1999, 269, 94-104. The catalytic domains of human JAK1 (a.a. 837-1142) and JAK2 (a.a. 828-1132) with an N-terminal His tag were expressed using baculovirus in insect cells and purified. The catalytic activity of JAK1 and JAK2 was assayed by measuring the phosphorylation of a biotinylated peptide. The phosphorylated peptide was detected by homogenous time resolved fluorescence (HTRF). IC50s of compounds were measured for each kinase in the 40 microL reactions that contain the enzyme, ATP and 500 nM peptide in 50 mM Tris (pH 7.8) buffer with 100 mM NaCl, 5 mM DTT, and 0.1 mg/mL (0.01%) BSA. For the 1 mM IC50 measurements, ATP concentration in the reactions was 1 mM. Reactions were carried out at room temperature for 1 hr and then stopped with 20 μL 45 mM EDTA, 300 nM SA-APC, 6 nM Eu-Py20 in assay buffer (Perkin Elmer, Boston, Mass.). Binding to the Europium labeled antibody took place for 40 minutes and HTRF signal was measured on a Fusion plate reader (Perkin Elmer, Boston, Mass.).
(In general: TR-FRET usually uses a lanthanide donor and a delayed reading to cut background.)

T1 sequence (P23458 849-1154): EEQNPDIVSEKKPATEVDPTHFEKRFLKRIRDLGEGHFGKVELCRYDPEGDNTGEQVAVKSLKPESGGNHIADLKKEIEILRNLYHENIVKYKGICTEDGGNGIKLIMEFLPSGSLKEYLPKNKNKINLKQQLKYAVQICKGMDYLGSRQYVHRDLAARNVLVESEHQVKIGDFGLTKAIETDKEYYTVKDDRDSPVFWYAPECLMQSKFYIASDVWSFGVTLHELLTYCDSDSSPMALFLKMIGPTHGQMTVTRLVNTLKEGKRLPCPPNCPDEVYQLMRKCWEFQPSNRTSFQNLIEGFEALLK

What is called IC50 is the concentration that inhibits the measured activity by half. `N#CCC1(n2cc(-c3ncnc4[nH]ccc34)cn2)CN(C2CCN(C(=O)c3ccnc(C(F)(F)F)c3F)CC2)C1` [Example 1, {1-{1-[3-fluoro-2-(trifluoromethyl)isonicotinoyl]piperidin-4-yl}-3-[4-(7H-pyrrolo[2,3-d]pyrimidin-4-yl)-1H-pyrazol-1-yl]azetidin-3-yl}acetonitrile] came in with an IC50 of at most 5 nM.
